Molecules are shown by their SMILES. Counter-ions that a name gives are not always drawn.

The target of the first test is T1, BACE1 (Homo sapiens, UniProt P56817).
T1 construct: Human HEK293 cells which are stably transfected with a vector expressing a cDNA of the human APP wt gene (APP695); endogenous in cells; host or cells: HEK293 (human), stably transfected with human APP695 wt only
T1 sequence (P56817 46-501): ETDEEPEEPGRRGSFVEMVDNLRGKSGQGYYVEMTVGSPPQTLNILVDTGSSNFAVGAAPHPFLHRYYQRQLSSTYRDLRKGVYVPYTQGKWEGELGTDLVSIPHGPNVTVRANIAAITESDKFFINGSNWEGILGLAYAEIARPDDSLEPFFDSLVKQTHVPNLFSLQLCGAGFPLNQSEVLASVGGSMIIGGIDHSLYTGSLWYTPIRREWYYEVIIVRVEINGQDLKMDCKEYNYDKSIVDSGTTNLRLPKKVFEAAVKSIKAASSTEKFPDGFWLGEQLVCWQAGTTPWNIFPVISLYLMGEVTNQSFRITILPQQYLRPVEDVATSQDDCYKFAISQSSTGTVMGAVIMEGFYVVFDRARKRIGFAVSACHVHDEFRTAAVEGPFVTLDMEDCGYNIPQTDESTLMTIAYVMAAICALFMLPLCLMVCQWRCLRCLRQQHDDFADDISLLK
Nature of the test: Cellular Aβ-lowering assay (Aβ40 ELISA, HEK293 cells expressing human APP695). The format is cell-based. The conditions noted are these: HEK293 cells stably expressing human APP695; Aβ40 in supernatant after 18-20 hrs. The protocol:
Cellular Aβ-Lowering Assay:
Human HEK293 cells which are stably transfected with a vector expressing a cDNA of the human APP wt gene (APP695) were used to assess the potency of the compounds in a cellular assay. The cells were seeded in 96-well microtiter plates in cell culture medium (Iscove, plus 10% (v/v) fetal bovine serum, glutamine, penicillin/streptomycin) to about 80% confluence and the compounds were added at a 10× concentration in 1/10 volume of medium without FCS containing 8% DMSO (final concentration of DMSO was kept at 0.8% v/v). After 18-20 hrs incubation at 37° C. and 5% CO2 in a humidified incubator the culture supernatant was harvested for the determination of Aβ40 concentrations. 96well ELISA plates (e.g., Nunc MaxiSorb) were coated with monoclonal antibody which specifically recognize the C-terminal end of Aβ40 (Brockhaus et al., NeuroReport 9, 1481-1486; 1998). After blocking of non-specific binding sites with e.g. 1% BSA and washing, the culture supernatants were added in suitable dilutions together with a horseradish peroxidase-coupled Aβ detection antibody (e.g., antibody 4G8, Senetek, Maryland Heights, Mo.) and incubated for 5 to 7 hrs. Subsequently the wells of the microtiter plate were washed extensively with Tris-buffered saline containing 0.05% Tween 20 and the assay was developed with tetramethylbenzidine/H2O2 in citric acid buffer. After stopping the reaction with one volume 1 N H2SO4 the reaction was measured in an ELISA reader at 450 nm wavelength. The concentrations of Aβ in the culture supernatants were calculated from a standard curve obtained with known amounts of pure Aβ peptide.
A general note: ELISA stands for enzyme-linked immunosorbent assay.
By IC50 is commonly meant the concentration needed to halve the response being measured. Regarding `Cc1cc(Cl)cc(-c2cccc(C3(C)COCC(N)=N3)c2)c1` (stereo not drawn) [Example 9, 5-(3′-Chloro-5′-methyl-biphenyl-3-yl)-5-methyl-5,6-dihydro-2H-[1,4]oxazin-3-ylamine], the IC50 was found to be 2.48 µM.

Turning to `CC1(c2cccc(-c3ccc(Cl)cn3)c2)COCC(N)=N1` (stereo not drawn) [Example 33, 5-[3-(5-Chloro-pyridin-2-yl)-phenyl]-5-methyl-5,6-dihydro-2H-[1,4]oxazin-3-ylamine], inhibition was half-maximal at 12.6 µM (IC50).

Regarding `CC1(c2cccc(-c3cncc(Cl)c3)c2)COCC(N)=N1` (stereo not drawn) [Example 34, 5-[3-(5-Chloro-pyridin-3-yl)-phenyl]-5-methyl-5,6-dihydro-2H-[1,4]oxazin-3-ylamine], the half-inhibitory concentration (IC50) was 0.39 µM.

`C[C@@]1(c2cc(-c3cc(Cl)cc(Cl)c3)ccc2F)COCC(N)=N1` [Example 37, (R)-5-(3′,5′-Dichloro-4-fluoro-biphenyl-3-yl)-5-methyl-5,6-dihydro-2H-[1,4]oxazin-3-ylamine] showed an IC50 of 0.51 µM. This IC50 and that of the compound before are within 1.5-fold of each other.

For `CC1(c2cccc(-c3cncc(C#N)c3)c2)COCC(N)=N1` (stereo not drawn) [Example 38, 5-(3-(5-Amino-3-methyl-3,6-dihydro-2H-1,4-oxazin-3-yl)phenyl)nicotinonitrile], the half-inhibitory concentration (IC50) was 0.31 µM. This IC50 is about 1.6-fold lower than that of the compound before.

The compound `CC1(c2cccc(-c3cccnc3F)c2)COCC(N)=N1` (stereo not drawn) [Example 39, 5-(3-(2-fluoropyridin-3-yl)phenyl)-5-methyl-5,6-dihydro-2H-1,4-oxazin-3-amine] returned an IC50 of 0.28 µM.

For the compound `CC1(c2cccc(-c3ccc(F)nc3F)c2)COCC(N)=N1` (stereo not drawn) [Example 40, 5-(3-(2,6-difluoropyridin-3-yl)phenyl)-5-methyl-5,6-dihydro-2H-1,4-oxazin-3-amine], 0.53 µM corresponded to half-maximal inhibition (IC50). This IC50 lies about 1.9-fold higher than the previous one.

The compound `CC1(c2cccc(-c3cccc(N)c3)c2)COCC(N)=N1` (stereo not drawn) [Example 41, 5-(3′-Amino-biphenyl-3-yl)-5-methyl-5,6-dihydro-2H-[1,4]oxazin-3-ylamine] yielded a half-maximal inhibitory concentration (IC50) of 3.07 µM.

`COCC#Cc1cccc(C2(C)COCC(N)=N2)c1` (stereo not drawn) [Example 42, 5-[3-(3-Methoxy-prop-1-ynyl)-phenyl]-5-methyl-5,6-dihydro-2H-[1,4]oxazin-3-ylamine] yielded an IC50 of 1.06 µM.

Regarding `CC1(c2cccc(C#Cc3ccc(Cl)cn3)c2)COCC(N)=N1` (stereo not drawn) [Example 43, 5-[3-(5-Chloro-pyridin-2-ylethynyl)-phenyl]-5-methyl-5,6-dihydro-2H-[1,4]oxazin-3-ylamine], inhibition was half-maximal at 0.3 µM (IC50).

As to `Cc1cc(C2(c3cccc(-c4cccnc4)c3)COCC(N)=N2)ccc1OC(F)F` (stereo not drawn) [Example 44, 5-(4-Difluoromethoxy-3-methyl-phenyl)-5-(3-pyridin-3-yl-phenyl)-5,6-dihydro-2H-[1,4]oxazin-3-ylamine], the IC50 is 0.06 µM.

For `Cc1cc(C2(c3cccc(-c4ccc(Cl)nc4)c3)COCC(N)=N2)ccc1OC(F)F` (stereo not drawn) [Example 45, 5-[3-(6-Chloro-pyridin-3-yl)-phenyl]-5-(4-difluoromethoxy-3-methyl-phenyl)-5,6-dihydro-2H-[1,4]oxazin-3-ylamine], half-maximal inhibition (IC50) required 0.36 µM. Against the preceding compound, the IC50 is about 6-fold higher.

`Cc1cc(C2(c3cccc(-c4cncc(Cl)c4)c3)COCC(N)=N2)ccc1OC(F)F` (stereo not drawn) [Example 46, 5-[3-(5-Chloro-pyridin-3-yl)-phenyl]-5-(4-difluoromethoxy-3-methyl-phenyl)-5,6-dihydro-2H-[1,4]oxazin-3-ylamine] gave an IC50 of 0.04 µM. Against the preceding compound, the IC50 is about 9-fold lower.

Compound `NC1=NC(c2ccc(OC(F)F)nc2)(c2cccc(-c3cncc(Cl)c3)c2)COC1` (stereo not drawn) [Example 47, 5-[3-(5-Chloro-pyridin-3-yl)-phenyl]-5-(6-difluoromethoxy-pyridin-3-yl)-5,6-dihydro-2H-[1,4]oxazin-3-ylamine] yielded a half-inhibitory concentration (IC50) of 0.11 µM. This IC50 is about 2.8-fold higher than that of the compound before.

Compound `COc1cncc(-c2cccc(C3(c4ccc(OC(F)F)nc4)COCC(N)=N3)c2)c1` (stereo not drawn) [Example 48, 5-(6-Difluoromethoxy-pyridin-3-yl)-5-[3-(5-methoxy-pyridin-3-yl)-phenyl]-5,6-dihydro-2H-[1,4]oxazin-3-ylamine] gave an IC50 of 0.03 µM.

Regarding `CC1(c2cccc(-c3nc4ccc(Cl)cc4o3)c2)COCC(N)=N1` (stereo not drawn) [Example 49, 5-[3-(6-Chloro-benzooxazol-2-yl)-phenyl]-5-methyl-5,6-dihydro-2H-[1,4]oxazin-3-ylamine], the IC50 is 0.2 µM.

In the case of `CC1(c2cccc(-c3nc4cc(Cl)ccc4[nH]3)c2)COCC(N)=N1` (stereo not drawn) [Example 50, 5-[3-(5-Chloro-1H-benzoimidazol-2-yl)-phenyl]-5-methyl-5,6-dihydro-2H-[1,4]oxazin-3-ylamine], the IC50 came out at 1.28 µM.

Turning to `NC1=NC(c2cc(-c3cncnc3)ccc2F)(C(F)F)COC1` (stereo not drawn) [Example 51, 5-Difluoromethyl-5-(2-fluoro-5-pyrimidin-5-yl-phenyl)-5,6-dihydro-2H-[1,4]oxazin-3-ylamine], the midpoint of inhibition, the IC50, lay at 0.77 µM.

With `NC1=NC(c2cc(-c3cncc(Cl)c3)ccc2F)(C(F)F)COC1` (stereo not drawn) [Example 52, 5-[5-(5-Chloro-pyridin-3-yl)-2-fluoro-phenyl]-5-difluoromethyl-5,6-dihydro-2H-[1,4]oxazin-3-ylamine], the half-maximal inhibitory concentration (IC50) was found to be 0.28 µM.

Compound `CC1(c2cccc(-c3nc4cc(Cl)ccc4o3)c2)COCC(N)=N1` (stereo not drawn) [Example 53, 5-[3-(5-Chloro-benzooxazol-2-yl)-phenyl]-5-methyl-5,6-dihydro-2H-[1,4]oxazin-3-ylamine] displayed a half-inhibitory concentration (IC50) of 1.49 µM.

As for `CC1(c2cccc(C#Cc3ccccc3)c2)COCC(N)=N1` (stereo not drawn) [Example 54, 5-Methyl-5-(3-phenylethynyl-phenyl)-5,6-dihydro-2H-[1,4]oxazin-3-ylamine], the IC50 was found to be 1.47 µM.

`CC1(c2cccc(C#Cc3ccsc3)c2)COCC(N)=N1` (stereo not drawn) [Example 55, 5-Methyl-5-(3-thiophen-3-ylethynyl-phenyl)-5,6-dihydro-2H-[1,4]oxazin-3-ylamine] had a half-maximal inhibitory concentration (IC50) of 2.78 µM.

`COc1cc(-c2cccc(C3(C)COCC(N)=N3)c2)cc(F)c1F` (stereo not drawn) [Example 56, 5-(4′,5′-Difluoro-3′-methoxy-biphenyl-3-yl)-5-methyl-5,6-dihydro-2H-[1,4]oxazin-3-ylamine formate] gave an IC50 of 2.55 µM.

`CC1(c2cccc(-c3cc(C(F)(F)F)cc(C(F)(F)F)c3)c2)COCC(N)=N1` (stereo not drawn) [Example 57, 5-(3′,5′-Bis-trifluoromethyl-biphenyl-3-yl)-5-methyl-5,6-dihydro-2H-[1,4]oxazin-3-ylamine formate] displayed an IC50 of 6.72 µM.

Turning to `CC1(c2cccc(-c3ccc(F)c(OCC(F)(F)F)c3)c2)COCC(N)=N1` (stereo not drawn) [Example 58, 5-[4′-Fluoro-3′-(2,2,2-trifluoro-ethoxy)-biphenyl-3-yl]-5-methyl-5,6-dihydro-2H-[1,4]oxazin-3-ylamine formate], the IC50 is 8.34 µM.

The compound `COc1ccc2ccc(-c3cccc(C4(C)COCC(N)=N4)c3)cc2c1` (stereo not drawn) [Example 59, 5-[3-(7-Methoxy-naphthalen-2-yl)-phenyl]-5-methyl-5,6-dihydro-2H-[1,4]oxazin-3-ylamine formate] showed a concentration for half-maximal inhibition (IC50) of 4.39 µM.

The next test deals with T2, BACE2 (Rattus norvegicus, UniProt Q6IE75).
T2 construct: endogenous cellular BACE2 in the Ins1e rat cell line; endogenous in cells; host or cells: INS-TMEM27 (INS1e-derived rat cell line with doxycycline-inducible full-length human TMEM27)
T2 sequence (Q6IE75 63-514): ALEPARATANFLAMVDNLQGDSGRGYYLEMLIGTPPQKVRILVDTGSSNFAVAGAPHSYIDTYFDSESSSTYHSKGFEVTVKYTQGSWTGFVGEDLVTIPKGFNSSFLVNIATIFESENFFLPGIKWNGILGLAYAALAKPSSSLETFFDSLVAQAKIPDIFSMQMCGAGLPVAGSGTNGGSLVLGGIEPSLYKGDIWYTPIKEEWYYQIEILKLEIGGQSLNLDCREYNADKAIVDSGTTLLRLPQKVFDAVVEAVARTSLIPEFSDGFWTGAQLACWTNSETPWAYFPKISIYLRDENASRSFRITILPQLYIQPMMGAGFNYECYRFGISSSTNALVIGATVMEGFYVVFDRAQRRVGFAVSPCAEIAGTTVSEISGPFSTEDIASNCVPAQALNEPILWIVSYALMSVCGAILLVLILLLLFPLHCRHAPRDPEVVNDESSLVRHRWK
Kind of test: Assay for BACE inhibition by measuring cellular TMEM27 cleavage (INS-TMEM27 cells, ELISA). Format: cell-based. The settings on record: INS-TMEM27 (INS1e-derived) cells; shed TMEM27 by ELISA. From the text: Assay for BACE Inhibition by Measuring Cellular TMEM27 Cleavage:
The assay uses the principle of inhibition of human TMEM27 cleavage by endogenous cellular BACE2 in the Ins1e rat cell line and shedding from the cell surface into the culture medium, followed by detection in an ELISA assay. Inhibition of BACE2 prevents the cleavage and shedding in a dose-dependent manner.
The stable cell line “INS-TMEM27” represents an INS1e-derived cell line with inducible expression (using the TetOn system) of full-length hTMEM27 in a doxycycline-dependent manner. The cells are cultured throughout the experiment in RPMI1640+Glutamax (Invitrogen) Penicillin/Streptomycin, 10% Fetal bovine serum, […], […], 100 micrograms/ml G418 and 100 microgram/ml hygromycin and are grown inadherent culture at 37° C. in a standard CO2 cell culture incubator.
INS-TMEM27 cells are seeded in 96-well plates. After 2 days in culture, BACE2 inhibitor is added in a range of concentrations as required by the assay and after a further two hours, doxycycline is added to a final concentration of 500 ng/ml. The cells are incubated for a further 46 hours and the supernatant harvested for detection of shed TMEM27.
An ELISA assay (using a pair of mouse anti-human-TMEM27 antibodies, raised against the extracellular domain of TMEM27) is used for detection of TMEM27 in the culture medium. An EC50 for BACE2 inhibition is calculated using the ELISA readout for each inhibitor concentration with standard curve-fitting software such as XLFit for the Excel spreadsheet program.
The compound `Cc1cc(Cl)cc(-c2cccc(C3(C)COCC(N)=N3)c2)c1` (stereo not drawn) [Example 9, 5-(3′-Chloro-5′-methyl-biphenyl-3-yl)-5-methyl-5,6-dihydro-2H-[1,4]oxazin-3-ylamine] had an IC50 of 1.11 µM. That is a single-digit micromolar value.

`C[C@@]1(c2cc(-c3cc(Cl)cc(Cl)c3)ccc2F)COCC(N)=N1` [Example 37, (R)-5-(3′,5′-Dichloro-4-fluoro-biphenyl-3-yl)-5-methyl-5,6-dihydro-2H-[1,4]oxazin-3-ylamine] showed a 50% inhibitory concentration (IC50) of 0.12 µM.

`Cc1cc(C2(c3cccc(-c4cncc(Cl)c4)c3)COCC(N)=N2)ccc1OC(F)F` (stereo not drawn) [Example 46, 5-[3-(5-Chloro-pyridin-3-yl)-phenyl]-5-(4-difluoromethoxy-3-methyl-phenyl)-5,6-dihydro-2H-[1,4]oxazin-3-ylamine] displayed an IC50 of 0.03 µM.

Take `CC1(c2cccc(-c3nc4ccc(Cl)cc4o3)c2)COCC(N)=N1` (stereo not drawn) [Example 49, 5-[3-(6-Chloro-benzooxazol-2-yl)-phenyl]-5-methyl-5,6-dihydro-2H-[1,4]oxazin-3-ylamine]: the half-maximal inhibitory concentration (IC50) is 0.2 µM.

The values are drawn from US8399459B2, “1,4 oxazines as BACE1 and/or BACE2 inhibitors” (Hoffmann-La Roche Inc., priority 2011, dated 2013).
